How the values were obtained:
[1] = Slurry pH of enamel softening treatments; assay type: physicochemical; conditions: treatment as used in enamel softening, Study 1
Excerpt: The pH of the oral care compositions as described herein can be from about 4 to about 7, from about 4 to about 6, from about 4.5 to about 6.5, or from about 4.5 to about 5.5. The pH of a mouthrinse solution can be determined as the pH of the neat solution. The pH of a dentifrice composition can be determined as a slurry pH, which is the pH of a mixture of the dentifrice composition and water, such as a 1:4, 1:3, or 1:2 mixture of the dentifrice composition and water.

[2] = human, 1 %, pH 2.19
Procedure: The enamel softening method is used to determine the potential of oral care compositions to damage (or not to damage) dental enamel with repeated exposure.
A core of sound human enamel with a diameter of 3-4 mm was extracted from whole human teeth. The cores were mounted in dental acrylic and the surfaces were ground using 600 grit paper. Increasingly fine lapping papers were then used to polish the surface to a 1μ polish. Samples were sonicated in deionized water for 30 min. Enamel specimens were then rinsed with deionized water and wiped to remove any residual polish. Each enamel specimen was inspected and samples with large cracks or uneven calcification were discarded. […]
The artificial saliva solution of TABLE 6 was prepared on the day before the experiment. Also on the day before the experiment, the Vickers hardness of each enamel specimen was measured using a hardness indenter at three separate locations spread across the enamel surface. A 50 g load was applied for 10 seconds, and the diagonal lengths of the resulting indents were measured using a 20× magnification objective. […]
On the day following the cycling experiment, the post-cycling hardness was obtained for each specimen using a similar procedure to that described for the pre-cycling hardness measurements. […] The average change in specimen hardness with respect to treatment and its standard deviation were then determined. […]

[3] = Powder Stain Removal Model (PSRM), tea stain + FeCl3; conditions: pH 7
Excerpt: The PSRM is a screening technique where hydroxyapatite powder (HAP) is used as a substrate for stain accumulation (see Baig A A; Kozak K M; Cox E R et al; J Clin Dent 2002, 13:19 24). The purpose of this technique was to illustrate and quantify the stain removal properties of chemical agents used in the oral care compositions disclosed herein with respect to pH. Hydroxyapatite powder provides a large surface area to which tea chromogens adsorbed. In addition to the published PSRM a modification of the model was used where tea stain was used in conjunction with Iron Trichloride (FeCl3) to simulate stains that are more resistant to removal. Stains found in the oral cavity commonly contain Fe(III) (Tantbirojn D, Douglas W H et al Eur J Oral Sci 1998; 106,971-976). […] The magnitude of stain removal was quantified by image analysis. […] VWR BDH9234) was added under stirring. Then HAP-powder was added, powder was centrifuged, washed and dried to yield a deeply colored powder. Treatment solutions were prepared for oxalate and pyrophosphate anions. Oxalate solutions (0.34M, 3%) of different pH (4.5, 5.0, 5.5, 7) were obtained by mixing appropriate ratios of potassium oxalate (62.79 g/L Potassium Oxalate Monohydrate in water, pH-7.0) and oxalic acid solution (30.69 g Oxalic Acid/L in water, pH-1.3). Lower concentrations were obtained by further dilution with water. A pyrophosphate solution, equimolar to a 3% Oxalate solution (75.65 g/L Sodium acid pyrophosphate, pH-adjusted with IN NaOH to pH7) was used as comparison. HAP powders were treated with the treatment solutions to investigate their stain removal potential. […] Supernatant was decanted and the pellet was washed twice by adding 25 mL of water, vortexing, centrifuging at 14,000 rpm for 15 mins, and decanting. The twice washed pellet was resuspended in 30 mL water by vortexing for 1 min, then vacuum-filtered (Millipore MF Membrane Filters 8.0 um, 47 mm) to collect the powder. […] Treatments were done in triplicate. A control disk using tea-stained HAP from the same batch treated with water was prepared as well. The color of the laminated samples was measured using a color-calibrated, white-balanced digital camera and RGB values were acquired. […] The light system was equipped with Dedo lights (model number DLH2) equipped with 150 watt, 24V bulbs model number (Xenophot model number HL X64640), positioned about 30 cm apart (measured from the center of the external circular surface of one of the glass lens through which the light exits to the other) and aimed at a 45 degree angle such that the light paths. […] Stain removal was determined as change in L (brightness) vs. untreated stained HAP, calculated as ΔL=(L for treated HAP-L for the untreated stained HAP). […]

[4] = Powder Stain Removal Model (PSRM), tea stain; conditions: pH 7
Procedure: A tea solution was prepared using 8 regular teabags (Lipton Black Tea) in 400 mL boiling water and steeping for 5 min. After letting the tea cool to 50° C. it was filtered through a Nalgene sterile filter (Thermo Scientific Nalgene Rapid flow 75 mm Filter Unit, 0.2SCFA). 10 g Hydroxyapatite Powder (HAP, Bio-Gel HTP-Gel Catalog #130-0421, Bio-Rad Laboratories Hercules, Calif.) was added and the mixture was stirred for 5 min, distributed into 12 50-mL centrifuge tubes and centrifuged for 15 min at 14,000 rpm (Lynx 6000, Thermo Fischer with Lynx F14-14X50CY rotor). Supernatant was decanted, the remaining stained HAP-powder was washed twice with water by adding 25 ml of water, vortexing, centrifuging at 14,000 rpm for 15 mins, and decanting liquid. Centrifuge tubes were placed in a convection oven overnight at 60° C. to dry stained HAP. Once dried, stained HAP was pooled and ground to a fine powder with pestle and mortar and stored in a dry dark place at room temperature.
HAP powders were treated with the treatment solutions to investigate their stain removal potential. Treatment (20 mL of a 1:4 dilution of treatment solutions above) was added to stained HAP powder (200 mg) in a 50 mL centrifuge, vortexed for 1 min, then centrifuged at 14,000 rpm for 15 min. Supernatant was decanted and the pellet was washed twice by adding 25 mL of water, vortexing, centrifuging at 14,000 rpm for 15 mins, and decanting. […]

[5] = 0.250 % Active (equimolar to Oxalate Solution)
[6] = 1.250 % Active (equimolar to Oxalate Solution)
[7] = 2.5200 % Active (equimolar to Oxalate Solution)
[8] = 7.56.00 % Active (equimolar to Oxalate Solution)

| SMILES | Slurry pH [1] | Δ SMH (change in surface microhardness) [2] | Tea Stain + FeCl3 (ΔL) [3, 5] | Tea Stain + FeCl3 (ΔL) [3, 6] | Tea Stain + FeCl3 (ΔL) [3, 7] | Tea Stain + FeCl3 (ΔL) [3, 8] | Tea Stain (ΔL) [4, 5] | Tea Stain (ΔL) [4, 6] | Tea Stain (ΔL) [4, 7] | Tea Stain (ΔL) [4, 8] |
| --- | --- | --- | --- | --- | --- | --- | --- | --- | --- | --- |
| O=C(O)CC(O)(CC(=O)O)C(=O)O [1% Citric Acid, citric acid] | 2.19 | −175.68 |  |  |  |  |  |  |  |  |
| O=P([O-])(O)OP(=O)([O-])O.[Na+].[Na+] [Pyrophosphate Solution, Sodium acid pyrophosphate] |  |  | −0.97 | 0.02 | 0.77 | 2.88 | 5.16 | 5.97 | 7.88 | 9.85 |

From patent US20210346259A1, “Oral Care Compositions Comprising Dicarboxylic Acid” (The Procter & Gamble Company, priority 2020, published 2021)
